{"source": "paper PMC3971658", "about": "(The Journal of General Physiology, 2014)", "key": {"[1]": {"tested_on": "human Cav2.3c channel and GABABR", "assay_type": "cell-based"}, "[2]": {"molecular_target": "human Cav2.1 (α1A-2) channel and GABABR (Homo sapiens, UniProt O75899+Q9UBS5)", "assay_type": "cell-based", "settings": "200 nM"}, "[3]": {"molecular_target": "human Cav2.3c (α1E-c) channel and GABABR (Homo sapiens, UniProt O75899+Q9UBS5)", "assay_type": "cell-based", "settings": "200 nM"}, "[4]": {"tested_on": "GABABR", "settings": "cited from earlier work"}, "[5]": {"tested_on": "rat models of neuropathic pain", "settings": "in vivo; cited from earlier work"}}, "data": [{"substance": "Vc1.1", "values": [{"measurement": "pathway of inhibition (VD or VI)", "setting": "[1]", "result": "solely mediated by a VI pathway"}, {"measurement": "IBa inhibition", "setting": "[2]", "result": "0 (9) %"}, {"measurement": "IBa inhibition", "setting": "[3]", "result": "25.5 ± 4.2 (9) %"}, {"measurement": "competition with baclofen for binding to receptors", "setting": "[4]", "result": "does not compete with baclofen for binding to receptors"}, {"measurement": "analgesic effect", "setting": "[5]", "result": "can be used as an analgesic in rat models of neuropathic pain"}]}]}
